Earlier results on 1 compound are cited in patent US8097707B2, “Compositions and processes for preparing 13-deoxy-anthracyclines” (priority 2004, dated 2012).

The conditions of the data set: test systems where doxorubicin is not metabolized appreciably to the 13-dihydro alcohol metabolite (doxorubicinol).

For the compound `COc1cccc2c1C(=O)c1c(O)c3c(c(O)c1C2=O)C[C@@](O)(C(=O)CO)C[C@@H]3O[C@H]1C[C@H](N)[C@H](O)[C@H](C)O1` [doxorubicin], the cardiotoxic effects entry is listed as “no significant cardiotoxic effects”.
